Calls of active or inactive are those of the source.
Tests used:
[1] = Luminescence Cell-Based/Microorganism Confirmation at Dose of Inhibitors of Trypanosoma cruzi Infection. [Related pubchem assays: 1885, 1968 ]; type: functional
[2] = Trypanosoma cruzi growth suppression in host cells – NIH3T3 host cells, beta-gal luminescence, confirmation (AID 2044); type: functional, cell-based;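 further: intracellular parasites grown in NIH/3T3 mouse fibroblasts as host cells; luminescent beta-galactosidase reporter signal from transgenic T. cruzi replicating inside host cells; inhibitors lower the luminescence signal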
[3] = Luminescence Cell-Based Secondary HTS screen to identify cytotoxic compounds of NIH3T3 cells. [Related pubchem assays: 1885, 1968 ]; type: functional
[4] = NIH3T3 cell viability loss – ATP luminescence, mouse fibroblasts, counter-screen, dose response (AID 2010); type: functional, cell-based;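 further: cells exposed to compound for about 90 hours before reading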
[5] = T. cruzi infection blockers in NIH3T3 cells – beta-gal luminescence, NIH3T3 host cells, confirmation (AID 2630); type: functional, cell-based; conditions: Mus musculus
CAAX prenyl protease 1 = CAAX prenyl protease 1 (Saccharomyces cerevisiae S288c, UniProt P47154); test: yeast CAAX protease Ste24 inhibition – biochemical, S. cerevisiae, plate reader, cherry-pick, dose response (AID 488815)
CAAX prenyl protease 1, sequence (P47154 whole entry): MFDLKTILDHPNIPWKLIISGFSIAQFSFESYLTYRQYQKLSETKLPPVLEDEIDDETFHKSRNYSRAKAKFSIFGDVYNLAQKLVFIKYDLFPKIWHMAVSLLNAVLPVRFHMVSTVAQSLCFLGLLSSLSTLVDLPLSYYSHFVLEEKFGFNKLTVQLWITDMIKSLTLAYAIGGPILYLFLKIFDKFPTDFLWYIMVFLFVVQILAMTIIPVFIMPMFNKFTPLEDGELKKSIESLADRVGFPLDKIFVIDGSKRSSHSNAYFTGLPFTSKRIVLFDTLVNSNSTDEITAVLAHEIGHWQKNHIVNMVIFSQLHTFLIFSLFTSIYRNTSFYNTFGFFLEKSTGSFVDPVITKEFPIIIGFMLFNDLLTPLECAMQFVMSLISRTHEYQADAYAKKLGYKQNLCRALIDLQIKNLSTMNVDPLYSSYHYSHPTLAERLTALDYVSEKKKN

CAAX prenyl protease 2 = target: T1, CAAX prenyl protease 2 (Homo sapiens, UniProt Q9Y256); test: inhibition of Ras-converting CAAX protease Rce1 – biochemical, yeast membranes, quenched-peptide fluorescence, cherry-pick, dose response (AID 588849)
T1 sequence (Q9Y256 whole entry): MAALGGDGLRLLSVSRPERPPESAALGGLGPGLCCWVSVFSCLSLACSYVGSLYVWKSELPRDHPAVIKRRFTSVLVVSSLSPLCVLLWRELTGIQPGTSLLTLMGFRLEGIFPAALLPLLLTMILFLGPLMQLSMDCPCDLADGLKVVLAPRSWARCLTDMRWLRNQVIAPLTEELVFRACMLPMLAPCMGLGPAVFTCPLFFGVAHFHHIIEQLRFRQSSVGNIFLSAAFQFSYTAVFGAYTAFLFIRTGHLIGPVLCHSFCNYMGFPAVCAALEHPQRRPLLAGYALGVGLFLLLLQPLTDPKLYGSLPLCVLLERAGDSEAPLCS

[6] = restored growth of temperature-sensitive Burl-1 yeast – whole organism, S. cerevisiae, Burl-1 ts mutant, luminescence, counter-screen for SUMOylation pathway inhibitor project, dose response (AID 463199); type: functional
SUMO-activating enzyme [7] = target: T2, SUMO-activating enzyme (Homo sapiens, UniProt Q9UBT2); test: blockers of UBC9-mediated SUMO conjugation – biochemical, AlphaScreen, SUMOylation inhibitor project, confirmation (AID 2018); type: functional
T2 sequence (Q9UBE0 whole entry): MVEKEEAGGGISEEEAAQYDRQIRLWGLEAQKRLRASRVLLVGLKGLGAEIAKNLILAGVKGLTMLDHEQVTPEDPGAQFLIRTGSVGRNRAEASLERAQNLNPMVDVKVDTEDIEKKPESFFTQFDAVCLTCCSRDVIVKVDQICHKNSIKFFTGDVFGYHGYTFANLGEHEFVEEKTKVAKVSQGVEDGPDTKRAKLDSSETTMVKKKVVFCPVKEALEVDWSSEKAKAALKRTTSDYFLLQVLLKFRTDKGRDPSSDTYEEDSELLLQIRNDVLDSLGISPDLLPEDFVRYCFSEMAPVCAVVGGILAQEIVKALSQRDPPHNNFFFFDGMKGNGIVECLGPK
T2 sequence (Q9UBT2 whole entry): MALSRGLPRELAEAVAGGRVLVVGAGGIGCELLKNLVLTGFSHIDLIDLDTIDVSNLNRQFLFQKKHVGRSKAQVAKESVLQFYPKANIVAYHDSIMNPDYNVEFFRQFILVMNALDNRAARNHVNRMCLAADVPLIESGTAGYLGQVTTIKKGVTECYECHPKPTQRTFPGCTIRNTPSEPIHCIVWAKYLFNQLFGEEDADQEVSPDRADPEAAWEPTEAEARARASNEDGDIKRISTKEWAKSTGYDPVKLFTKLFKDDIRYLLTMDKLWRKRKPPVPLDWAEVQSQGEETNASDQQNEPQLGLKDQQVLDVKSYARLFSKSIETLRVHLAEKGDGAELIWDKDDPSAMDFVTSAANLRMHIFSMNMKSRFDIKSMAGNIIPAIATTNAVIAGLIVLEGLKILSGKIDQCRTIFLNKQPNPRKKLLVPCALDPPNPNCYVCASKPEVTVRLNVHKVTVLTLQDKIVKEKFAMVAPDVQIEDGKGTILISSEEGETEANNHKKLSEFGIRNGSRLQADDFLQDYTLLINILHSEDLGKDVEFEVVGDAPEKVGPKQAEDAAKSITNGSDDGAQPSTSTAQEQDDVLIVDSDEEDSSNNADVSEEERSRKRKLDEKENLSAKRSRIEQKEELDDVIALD

SUMO-activating enzyme [8] = target: T2, SUMO-activating enzyme; test: blockers of SAE1/SAE2–UBC9 SUMO transfer – biochemical, HTRF, uHTS, primary screen (AID 2006); type: protein-complex assay
SUMO E1/E2 = SUMO E1/E2 (Homo sapiens, UniProt P63279+Q9UBE0+Q9UBT2); test: SAR analysis of SUMOylation using HTRF in an in-Vitro dose response assay. [Related pubchem assays (depositor defined):AID2006, AID2011, AID2018, AID2069, AID2658]; type: functional
SUMO E1/E2, sequence (Q9UBE0 whole entry): as the sequence (Q9UBE0 whole entry) above
SUMO E1/E2, sequence (Q9UBT2 whole entry): as the sequence (Q9UBT2 whole entry) above
SUMO E1/E2, sequence (P63279 whole entry): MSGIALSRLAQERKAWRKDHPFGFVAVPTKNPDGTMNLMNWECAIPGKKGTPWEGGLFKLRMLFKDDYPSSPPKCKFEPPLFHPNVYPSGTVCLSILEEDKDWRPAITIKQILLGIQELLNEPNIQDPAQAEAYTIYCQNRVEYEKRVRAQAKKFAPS

[9] = target: Eukaryotic translation initiation factor 4E (Mus musculus, UniProt P63073); test: blockers of eIF4G binding by eIF4E – biochemical, TR-FRET, dose response (AID 855); type: functional;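 further: potency for disrupting eIF4E binding to eIF4GI seen as loss of FRET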
Eukaryotic translation initiation factor 4E, sequence (P63073 whole entry): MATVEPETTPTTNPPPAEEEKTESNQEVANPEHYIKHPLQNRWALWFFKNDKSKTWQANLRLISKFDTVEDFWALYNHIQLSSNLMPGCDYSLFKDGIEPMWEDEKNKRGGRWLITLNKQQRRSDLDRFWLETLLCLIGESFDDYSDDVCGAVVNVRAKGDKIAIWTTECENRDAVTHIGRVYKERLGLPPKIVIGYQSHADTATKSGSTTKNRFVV

Hexokinase HKDC1 = Hexokinase HKDC1 (Homo sapiens, UniProt Q2TB90); test: inhibition of HKDC1 glucose phosphorylation – biochemical, W721R variant, dose response (AID 504729); type: functional
Hexokinase HKDC1, sequence (Q2TB90 whole entry): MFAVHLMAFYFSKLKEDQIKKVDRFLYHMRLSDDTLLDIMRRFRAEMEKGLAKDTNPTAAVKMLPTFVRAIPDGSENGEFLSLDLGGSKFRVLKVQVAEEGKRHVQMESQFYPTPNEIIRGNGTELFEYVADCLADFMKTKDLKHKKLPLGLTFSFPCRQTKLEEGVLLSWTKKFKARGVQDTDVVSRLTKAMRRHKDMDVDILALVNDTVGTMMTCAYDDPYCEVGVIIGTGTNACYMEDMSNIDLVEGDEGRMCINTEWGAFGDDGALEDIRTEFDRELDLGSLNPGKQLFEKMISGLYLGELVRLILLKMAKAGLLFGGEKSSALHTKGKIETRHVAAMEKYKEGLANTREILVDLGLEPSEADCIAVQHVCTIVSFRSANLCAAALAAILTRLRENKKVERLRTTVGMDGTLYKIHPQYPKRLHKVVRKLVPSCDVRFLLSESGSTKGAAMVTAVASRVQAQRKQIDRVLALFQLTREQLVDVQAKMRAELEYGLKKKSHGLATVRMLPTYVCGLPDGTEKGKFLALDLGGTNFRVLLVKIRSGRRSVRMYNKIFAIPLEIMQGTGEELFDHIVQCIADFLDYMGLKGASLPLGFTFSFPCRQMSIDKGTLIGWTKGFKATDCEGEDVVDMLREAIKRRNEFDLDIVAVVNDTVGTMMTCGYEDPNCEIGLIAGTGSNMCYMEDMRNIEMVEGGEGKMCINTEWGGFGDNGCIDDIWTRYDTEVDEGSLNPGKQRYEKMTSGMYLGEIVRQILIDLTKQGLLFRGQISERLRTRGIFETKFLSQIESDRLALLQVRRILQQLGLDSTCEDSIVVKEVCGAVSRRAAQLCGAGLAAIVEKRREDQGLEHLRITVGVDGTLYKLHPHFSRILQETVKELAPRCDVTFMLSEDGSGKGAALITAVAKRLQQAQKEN

[10] = target: T3, Replicative DNA helicase DnaB (Mycobacterium tuberculosis, UniProt P9WMR3); test: DnaB intein splicing inhibitors, dose response, biochemical, cell-free fluorescence (AID 449749); type: functional
T3 sequence (P9WMR3 whole entry): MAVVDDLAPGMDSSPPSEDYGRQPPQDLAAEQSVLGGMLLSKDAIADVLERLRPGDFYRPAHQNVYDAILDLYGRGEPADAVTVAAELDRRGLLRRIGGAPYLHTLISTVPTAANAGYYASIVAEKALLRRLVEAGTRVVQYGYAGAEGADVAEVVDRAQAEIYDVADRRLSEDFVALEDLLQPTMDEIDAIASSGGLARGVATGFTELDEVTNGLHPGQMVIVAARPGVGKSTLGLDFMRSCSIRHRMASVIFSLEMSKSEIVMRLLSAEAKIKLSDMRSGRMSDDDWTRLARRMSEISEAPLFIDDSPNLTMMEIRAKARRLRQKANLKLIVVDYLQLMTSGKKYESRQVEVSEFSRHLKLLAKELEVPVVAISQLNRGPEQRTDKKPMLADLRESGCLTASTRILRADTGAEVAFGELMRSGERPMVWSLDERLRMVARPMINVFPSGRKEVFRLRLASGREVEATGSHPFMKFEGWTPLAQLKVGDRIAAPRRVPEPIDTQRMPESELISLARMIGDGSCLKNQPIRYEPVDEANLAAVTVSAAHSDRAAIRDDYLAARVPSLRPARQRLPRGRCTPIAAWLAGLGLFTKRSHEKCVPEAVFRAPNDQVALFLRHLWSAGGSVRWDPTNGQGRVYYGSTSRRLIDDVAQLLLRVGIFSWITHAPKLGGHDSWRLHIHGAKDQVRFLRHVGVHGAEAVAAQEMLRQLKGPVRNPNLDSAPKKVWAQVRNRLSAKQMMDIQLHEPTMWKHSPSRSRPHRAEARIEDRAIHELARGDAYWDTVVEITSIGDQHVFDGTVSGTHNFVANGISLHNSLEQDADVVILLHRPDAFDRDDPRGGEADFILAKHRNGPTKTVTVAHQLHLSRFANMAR

Protein RecA = target: T4, Protein RecA (Mycobacterium tuberculosis, UniProt P9WHJ3); test: Fluorescence Cell-Free Homogeneous Dose Retest to Identify Inhibitors of RecA-Intein Splicing Activity. [Related pubchem assays (depositor defined):AID2097, AID2223, AID489010, AID492950]; type: functional
T4 sequence (P9WHJ3 whole entry): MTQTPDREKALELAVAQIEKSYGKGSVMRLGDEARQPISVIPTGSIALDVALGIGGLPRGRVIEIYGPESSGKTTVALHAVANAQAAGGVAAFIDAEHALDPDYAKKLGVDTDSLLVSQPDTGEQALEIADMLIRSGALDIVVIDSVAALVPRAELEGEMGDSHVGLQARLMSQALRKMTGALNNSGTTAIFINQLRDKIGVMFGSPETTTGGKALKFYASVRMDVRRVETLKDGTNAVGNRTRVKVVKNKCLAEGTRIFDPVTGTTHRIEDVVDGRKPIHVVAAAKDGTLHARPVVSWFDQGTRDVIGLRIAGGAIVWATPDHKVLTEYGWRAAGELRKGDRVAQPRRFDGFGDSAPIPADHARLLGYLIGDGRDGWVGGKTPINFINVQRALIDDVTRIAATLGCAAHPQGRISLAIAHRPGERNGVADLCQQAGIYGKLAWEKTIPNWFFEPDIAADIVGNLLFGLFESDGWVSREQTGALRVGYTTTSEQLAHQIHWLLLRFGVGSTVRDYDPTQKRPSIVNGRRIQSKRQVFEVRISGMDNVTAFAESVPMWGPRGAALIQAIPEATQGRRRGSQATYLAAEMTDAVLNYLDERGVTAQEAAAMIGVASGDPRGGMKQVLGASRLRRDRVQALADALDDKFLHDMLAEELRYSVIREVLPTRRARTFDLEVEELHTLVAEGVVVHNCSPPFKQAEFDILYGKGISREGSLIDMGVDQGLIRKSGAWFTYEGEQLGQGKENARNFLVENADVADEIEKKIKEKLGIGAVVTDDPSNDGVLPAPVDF

[11] = target: T5, Mannose-6-phosphate isomerase (Homo sapiens, UniProt P34949); test: phosphomannose isomerase inhibition – biochemical, fluorescence intensity, confirmation (AID 1535)
T5 sequence (P34949 whole entry): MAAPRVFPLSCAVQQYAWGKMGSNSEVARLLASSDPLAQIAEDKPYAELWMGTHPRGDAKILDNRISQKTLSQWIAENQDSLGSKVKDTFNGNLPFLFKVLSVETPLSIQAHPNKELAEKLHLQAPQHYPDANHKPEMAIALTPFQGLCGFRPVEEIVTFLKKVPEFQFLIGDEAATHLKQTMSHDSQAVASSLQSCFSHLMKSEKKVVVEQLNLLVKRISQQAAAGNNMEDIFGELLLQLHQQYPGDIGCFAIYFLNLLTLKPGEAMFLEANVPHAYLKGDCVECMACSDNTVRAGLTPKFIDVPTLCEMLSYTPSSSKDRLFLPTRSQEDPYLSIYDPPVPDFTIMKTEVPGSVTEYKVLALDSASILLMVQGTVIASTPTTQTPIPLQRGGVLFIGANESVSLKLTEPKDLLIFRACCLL

Phosphomannomutase 2 = Phosphomannomutase 2 (Homo sapiens, UniProt O15305); test: Counter screen SAR assay for PMM2 inhibitors via a fluorescence intensity assay. [Related pubchem assays (depositor defined):AID1545, AID1574]
Phosphomannomutase 2, sequence (O15305 whole entry): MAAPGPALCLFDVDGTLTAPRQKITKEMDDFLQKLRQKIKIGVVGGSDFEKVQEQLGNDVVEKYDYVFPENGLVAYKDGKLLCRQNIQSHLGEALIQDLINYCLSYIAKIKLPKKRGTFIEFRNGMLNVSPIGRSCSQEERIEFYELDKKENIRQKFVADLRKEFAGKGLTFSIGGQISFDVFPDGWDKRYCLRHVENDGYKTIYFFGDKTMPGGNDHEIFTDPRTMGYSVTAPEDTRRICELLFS

[12] = target: Luciferin 4-monooxygenase (Photinus pyralis, UniProt P08659); test: inhibition of purified Photinus pyralis luciferase – biochemical, luminescence, dose response (AID 1891)
Luciferin 4-monooxygenase, sequence (P08659 whole entry): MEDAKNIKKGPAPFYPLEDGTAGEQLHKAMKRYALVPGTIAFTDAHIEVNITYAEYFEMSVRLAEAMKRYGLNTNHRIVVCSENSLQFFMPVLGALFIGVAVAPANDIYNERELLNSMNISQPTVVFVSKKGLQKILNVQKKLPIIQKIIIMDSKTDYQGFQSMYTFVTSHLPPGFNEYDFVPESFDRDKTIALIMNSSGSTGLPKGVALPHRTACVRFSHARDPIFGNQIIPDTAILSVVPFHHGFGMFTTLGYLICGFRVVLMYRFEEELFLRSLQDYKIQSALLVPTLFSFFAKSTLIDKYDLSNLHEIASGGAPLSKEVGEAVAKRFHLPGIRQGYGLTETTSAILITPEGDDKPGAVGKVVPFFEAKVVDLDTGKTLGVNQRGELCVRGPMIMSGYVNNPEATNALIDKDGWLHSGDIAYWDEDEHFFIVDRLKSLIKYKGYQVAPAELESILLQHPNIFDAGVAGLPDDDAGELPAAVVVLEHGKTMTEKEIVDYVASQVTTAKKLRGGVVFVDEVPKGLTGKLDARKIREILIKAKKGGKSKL

[13] = Luminescence Cell-Based Dose Confirmation HTS to Identify Inhibitors of Platelet Dense Granule Release. [Related pubchem assays: 1663 (Primary HTS), 1678 (Summary of Project)]; type: functional
[14] = Fluorescence Cell-Based Dose Response to Identify Inhibitors of Thrombin Receptor-Activating Peptide SFLLRN-Mediated P-Selectin Induction on Platelets. [Related pubchem assays: 1663 (Primary HTS), 1889 (retest at dose ), 1891 (counterscreen), 1678 (Project Summary)]; type: functional
[15] = target: Lysine-specific demethylase 4C (Homo sapiens, UniProt Q9H3R0); test: inhibition of JMJD2C H3K9me3 demethylation – biochemical, DELFIA europium, cherry-picked samples, dose response (AID 488835); type: functional
Lysine-specific demethylase 4C, sequence (Q9H3R0 whole entry): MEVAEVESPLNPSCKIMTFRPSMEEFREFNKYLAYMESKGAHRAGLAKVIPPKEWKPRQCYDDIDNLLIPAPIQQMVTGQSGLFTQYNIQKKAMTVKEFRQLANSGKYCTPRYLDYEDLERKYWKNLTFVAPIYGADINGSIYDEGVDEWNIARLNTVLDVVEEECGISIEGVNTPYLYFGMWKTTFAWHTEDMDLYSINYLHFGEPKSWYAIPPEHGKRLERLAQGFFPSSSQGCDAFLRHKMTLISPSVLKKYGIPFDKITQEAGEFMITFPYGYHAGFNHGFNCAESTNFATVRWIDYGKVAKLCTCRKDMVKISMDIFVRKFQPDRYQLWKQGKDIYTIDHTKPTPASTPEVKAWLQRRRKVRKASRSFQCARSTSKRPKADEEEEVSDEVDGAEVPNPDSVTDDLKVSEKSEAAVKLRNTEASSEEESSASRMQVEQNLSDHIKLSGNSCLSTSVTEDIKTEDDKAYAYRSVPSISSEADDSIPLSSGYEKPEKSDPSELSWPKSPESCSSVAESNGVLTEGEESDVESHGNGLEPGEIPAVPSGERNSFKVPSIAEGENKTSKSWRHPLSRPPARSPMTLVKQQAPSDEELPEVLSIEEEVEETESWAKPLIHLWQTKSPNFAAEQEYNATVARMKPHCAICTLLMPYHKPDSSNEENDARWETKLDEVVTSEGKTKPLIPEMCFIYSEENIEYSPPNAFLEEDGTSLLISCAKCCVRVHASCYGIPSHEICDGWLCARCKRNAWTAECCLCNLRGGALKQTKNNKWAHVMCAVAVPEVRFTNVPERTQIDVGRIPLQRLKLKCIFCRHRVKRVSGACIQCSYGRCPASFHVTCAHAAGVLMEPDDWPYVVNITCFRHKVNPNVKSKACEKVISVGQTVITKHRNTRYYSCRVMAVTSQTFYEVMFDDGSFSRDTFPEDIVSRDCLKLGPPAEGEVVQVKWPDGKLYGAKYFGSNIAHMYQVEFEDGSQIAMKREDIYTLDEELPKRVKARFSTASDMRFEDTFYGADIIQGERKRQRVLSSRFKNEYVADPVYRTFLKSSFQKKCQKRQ

CC(C)Oc1cccc(C(=O)C2CCCN(Cc3cnc(N4CCCC4)s3)C2)c1 (stereo unspecified)
EC50 [1]: 0.606 µM (active)
EC50 [2]: 0.14 µM (active)
EC50 [3]: 63.8 µM (active)
EC50 [4]: > 60 µM (not active)
EC50 [5]: 0.607 µM (active)

CCOc1cccc(-c2nn(-c3ccccc3)cc2/C=C(/C#N)C(=O)NCCCn2ccnc2)c1
AC50 (CAAX prenyl protease 1): 7.93 µM (active)
AC50 (CAAX prenyl protease 2): 22.3 µM (active)

O=C1CC(c2ccccc2)C(=O)N1c1cccc(O)c1 (stereo unspecified)
AC50 [6]: 53.6 µM (active)

O=C(/C=C/c1cccs1)Nc1scc(-c2ccccc2)c1C(=O)O
IC50 (SUMO-activating enzyme [7]): 2.74 µM (active)
IC50 (SUMO-activating enzyme [8]): 9.84 µM (active)
IC50 (SUMO E1/E2): 6.11 µM (active)
IC50 [9]: 5.76 µM (active)
IC50 (Hexokinase HKDC1): 7 µM (active)
AC50 [10]: 23.3 µM (active)
EC50 (Protein RecA): 10.6 µM (active)

Cc1cccc(/N=c2\ssnc2Cl)c1
IC50 [11]: > 100 µM (inactive)
IC50 (Phosphomannomutase 2): > 100 µM (inactive)

COc1ccc(/C=N/N(C)c2cc(=O)n(C)c(=O)[nH]2)cc1OC
EC50 [12]: > 112 µM (not active)
EC50 [13]: 0.693 µM (active)
EC50 [14]: < 1 µM (active)
AC50 [15]: 17.8 µM (active)

Reference: ChEMBL document CHEMBL1201862, “PubChem BioAssay data set” (2004)
